Data taken from patent US20050244328A1 (priority 2002, published 2005).
Values joined by “and” are separate entries in the source; they are usually repeats but may differ in a detail not shown here. Identical values can stand only once.

Experiments:
[1] = tested on: Menidia beryllina; assay: 96-hour bioassay of ClO2 treated side stream effluent, Independent Bioassay Laboratory A, silverside minnow; format: in vivo; settings: end of 96-hour test period; ClO2 treated side stream effluent grabs Sep. 3, 2001 12:00, 18:00, 24:00, Sep. 4, 2001 06:00
Description: Mysidopsis bahia (Mysids) and Menidia beryllina (Silversides) were subjected to ClO2 treated effluent in these tests. Adequate volumes of chemical were brought to the site to conduct a dosing of the side stream for a 24-hour period. During this period, 2 gallons of treated water were taken at 6-hour intervals, preserved on ice and shipped to an independent bioassay laboratory (designated Independent Bioassay Laboratory A).
Table 3(c) illustrates the survivability of the organisms at the 96-hour end-point in the test for each of the 4 samples taken (samples indicated by date and time each sample was taken.).

[2] = tested on: M. beryllina; assay: Bioassay of ClO2 treated WWTP 2 effluent by Laboratory 4, silverside minnow; format: in vivo, Menidia beryllina; settings: for Sample survival % of M. berylina: grabs Sep. 11, 2002 10:00, 15:30, 22:00, Sep. 12, 2002 10:00
Description: With the success of the above bioassay series that began on Aug. 20, 2002, it was concluded that a third party test was needed to verify research data. Water grabs from the Anastasia Island Treatment Facility, taken on Aug. 28, 2002, were delivered to Laboratory 4, an independent bioassay laboratory. Additional testing of the water sent to Laboratory 4 labs was also forwarded to another contract lab to document the water quality during the sample periods for the bioassays. It should be noted here that the plant was operating under their normal operating conditions and accepting both landfill leachate as well as septic tank and portable toilet waste. These were however pumped into a storage tank and then trickled into the influent stream at the headworks.
The complete toxicological study as reference is included as attachment at the end of this study.
With the successful bioassay conducted by the Laboratory 4 labs, a second series of water samples was taken for the repeat bioassay. These samples were taken on Sep. 11, 2002 and forwarded to Laboratory 4 labs on Sep. 12, 2002 to conduct the bioassay. The results of this test for both the water quality toxicity and the bioassay are illustrated in the Tables 13, 14 and 15.
The complete toxicological results are provided at the end of this study as attachments.

[3] = tested on: Fecal Coliform; assay: Fecal coliform counts in effluent, full-scale pilot and baseline at WWTP 2
[4] = tested on: Fecal Coliform; assay: Fecal coliform kill in ClO2-dosed post clarifier effluent, side stream pilot at WWTP 1 (Membrane Filter SM 9222D)

Chlorine dioxide [ClO2]
Percent Survival m. beryllina [1]: 95% and 100% | Sample survival % of M. berylina ([2]; 6.25 % Effluent): 100% | Sample survival % of M. berylina ([2]; 12.5 % Effluent): 100% | Sample survival % of M. berylina ([2]; 25 % Effluent): 100% and 95% | Sample survival % of M. berylina ([2]; 50 % Effluent): 95% and 100% | Sample survival % of M. berylina ([2]; 100 % Effluent): 95% and 100% | M. beryllina % survival ([2]; ClO2 treated effluent grabs Aug. 28, 2002 10:15, 16:00, 22:00, Aug. 29, 2002 09:30): 100% | FECAL ([3]; 13:00, 1.2 PPM DOSE RATE, sample point 1, 19 Aug. 2002): 6 | FC (fecal) ([3]; 15:00, 0.91 PPM DOSE, sample point 4, 19 Aug. 2002): 15 | FECAL ([3]; 15:45, 1.05 PPM DOSE RATE, sample point 4, 19 Aug. 2002): 26 | FECAL ([3]; WWTP 2 effluent 28-Aug, CL2SO2 at 8:30, CLO2 at 10:15): 45 | Fecal Coliform ([4]; 1.8 ppm, 5 min contact, pH 7.20, Feb. 6, 2001): <1 #cfu/100 mls | Fecal Coliform ([4]; 1.8 ppm, 5 min contact, pH 7.20, Feb. 7, 2001): <1 #cfu/100 mls | Fecal Coliform ([4]; 2.23 ppm, 5 min contact, pH 7.20, Feb. 6, 2001): <1 #cfu/100 mls | Fecal Coliform ([4]; 2.23 ppm, 5 min contact, pH 7.20, Feb. 7, 2001): <1 #cfu/100 mls | Fecal Coliform ([4]; 3.0 ppm, 5 min contact, pH 7.20, Feb. 6, 2001): <1 #cfu/100 mls | Fecal Coliform ([4]; 3.0 ppm, 5 min contact, pH 7.20, Feb. 7, 2001): <1 #cfu/100 mls | Fecal Coliform ([4]; 3.97 ppm, 5 min contact, pH 7.20, Feb. 6, 2001): <1 #cfu/100 mls | Fecal Coliform ([4]; 3.97 ppm, 5 min contact, pH 7.20, Feb. 7, 2001): <1 #cfu/100 mls | Fecal Coliform ([4]; 5% chlorite solution, ClO2 dose rate 3.0 mg/ltr, 5 minute contact, Jan. 24, 2001): <1 #cfu/100 mls | Fecal Coliform ([4]; 5.0 ppm, 5 min contact, pH 7.20, Feb. 6, 2001): <1 #cfu/100 mls | Fecal Coliform ([4]; 5.0 ppm, 5 min contact, pH 7.20, Feb. 7, 2001): <1 #cfu/100 mls | Fecal Coliform ([4]; Injector 1.8 ppm, 5 min contact, pH 7.30, Feb. 5, 2001): <1 #cfu/100 mls | Fecal Coliform ([4]; Injector 2.23 ppm, 5 min contact, pH 7.30, Feb. 5, 2001): <1 #cfu/100 mls | Fecal Coliform ([4]; Injector 3.0 ppm, 5 min contact, pH 7.30, Feb. 5, 2001): <1 #cfu/100 mls | Fecal Coliform ([4]; Injector 3.97 ppm, 5 min contact, pH 7.30, Feb. 5, 2001): <1 #cfu/100 mls | Fecal Coliform ([4]; Injector 5.0 ppm, 5 min contact, pH 7.30, Feb. 5, 2001, (*) bits of algae in samples): 1 (*) #cfu/100 mls and <1 #cfu/100 mls | dosing rate at which fecal coliform kills were also achieved (as low as) ([4]; further testing): 0.075 ppm | fecal coliform kill ([4]; lower dosing rate of 1.8 ppm): effectively killed | time required for a complete fecal kill ([4]; lower dosing rates): more than 2 minutes
